Source: ChEMBL document CHEMBL1152369, “Unsymmetrical non-adamantyl N,N'-diaryl urea and amide inhibitors of soluble expoxide hydrolase” (Bioorg Med Chem Lett, 2009)

How the values were obtained:
[1] = molecular target: T1, Bifunctional epoxide hydrolase 2 (Homo sapiens, UniProt P34913); experiment: Inhibition of human soluble epoxide hydrolase by fluorescent endpoint assay
T1 sequence (P34913 whole entry): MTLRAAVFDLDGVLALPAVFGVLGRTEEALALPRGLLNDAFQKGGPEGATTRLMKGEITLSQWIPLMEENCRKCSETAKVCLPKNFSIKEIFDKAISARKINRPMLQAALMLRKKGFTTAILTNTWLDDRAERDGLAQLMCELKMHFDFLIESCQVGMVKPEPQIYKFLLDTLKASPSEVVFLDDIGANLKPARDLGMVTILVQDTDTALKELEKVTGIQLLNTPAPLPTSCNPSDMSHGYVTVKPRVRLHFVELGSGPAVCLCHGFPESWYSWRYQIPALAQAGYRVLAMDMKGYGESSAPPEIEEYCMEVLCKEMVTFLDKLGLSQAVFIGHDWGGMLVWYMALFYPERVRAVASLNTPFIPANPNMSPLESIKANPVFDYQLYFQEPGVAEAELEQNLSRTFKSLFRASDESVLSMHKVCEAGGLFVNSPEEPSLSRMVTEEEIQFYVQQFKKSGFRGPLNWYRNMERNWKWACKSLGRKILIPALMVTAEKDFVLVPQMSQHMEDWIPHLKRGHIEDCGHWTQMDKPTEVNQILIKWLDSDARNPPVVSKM

[2] = Cmax in Sprague-Dawley rat at 5 mg/kg, po by LC/MS/MS analysis; format: ADME, organism-based; design: dose 5 mg/kg, route oral; conditions: in vivo
[3] = AUC (0 to 24 hrs) in Sprague-Dawley rat at 5 mg/kg, po by LC/MS/MS analysis; format: ADME, organism-based; design: time < 24 hr, dose 5 mg/kg, route oral; conditions: plasma

Row | Compound | IC50 [1] | Cmax [2] | AUC(0-t) at 24 h [3]
1 | O=C(Nc1ccc(OCCCN2CCOCC2)cc1)Nc1ccc(OC(F)(F)F)cc1 | 0.8 nM | – | –
2 | O=C(Cc1ccc(OC(F)(F)F)cc1)Nc1ccc(F)c(OCCCN2CCOCC2)c1 | 145 nM | – | –
3 | O=C(Nc1ccccc1)Nc1cccc(OCCCN2CCOCC2)c1 | 38 nM | 1570 ng/mL | 3570 ng·h/mL
4 | O=C(Nc1ccc(OC(F)(F)F)cc1)Nc1ccc(F)c(OCCCN2CCOCC2)c1 | 0.8 nM | – | –
5 | O=C(Nc1ccc(OC(F)(F)F)cc1)Nc1cccc(OCCCN2CCOCC2)c1 | 8 nM | – | –
6 | CN(C)c1cccc(NC(=O)Nc2cccc(OCCCN3CCOCC3)c2)c1 | 240 nM | – | –
7 | O=C(Nc1ccc(Cl)cc1)Nc1ccc(OCCCN2CCOCC2)cc1 | 1.5 nM | – | –
8 | O=C(Nc1cccc(OCCCN2CCOCC2)c1)Nc1ccc2c(c1)OCO2 | 33 nM | 218 ng/mL | 753 ng·h/mL
9 | O=C(Nc1cccc(OCCCN2CCOCC2)c1)Nc1ccc(F)cc1F | 121 nM | – | –
10 | O=C(CC12CC3CC(CC(C3)C1)C2)Nc1ccc(F)c(OCCCN2CCOCC2)c1 | 6.6 nM | – | –
11 | O=C(Nc1ccc(Cl)cc1)Nc1ccc(F)c(OCCCN2CCOCC2)c1 | 4.8 nM | – | –
12 | O=C(Nc1ccc(F)cc1)Nc1cccc(OCCCN2CCOCC2)c1 | 14 nM | 123 ng/mL | 491 ng·h/mL
13 | O=C(Cc1ccc(F)cc1)Nc1cccc(OCCCN2CCOCC2)c1 | 550 nM | 48 ng/mL | 57 ng·h/mL
14 | O=C(Cc1ccc(Cl)cc1)Nc1cccc(OCCCN2CCOCC2)c1 | 116 nM | – | –
15 | O=C(Cc1ccc(OC(F)(F)F)cc1)Nc1cccc(OCCCN2CCOCC2)c1 | 43 nM | – | –
16 | O=C(Cc1ccccc1)Nc1ccc(OCCCN2CCOCC2)cc1 | 870 nM | – | –
17 | O=C(Nc1cccc(OCCCN2CCOCC2)c1)Nc1c(F)cc(F)cc1F | 1880 nM | – | –
18 | O=C(CC12CC3CC(CC(C3)C1)C2)NC1CCCC(OCCCN2CCOCC2)C1 (stereo not drawn) | 5.2 nM | – | –
19 | O=C(Cc1ccc(C(F)(F)F)cc1)Nc1ccc(OCCCN2CCOCC2)cc1 | 54 nM | – | –
20 | O=C(Nc1cccc(OCCCN2CCOCC2)c1)Nc1cccc(C(F)(F)F)c1 | 13.8 nM | – | –
21 | O=C(Cc1ccc(Cl)cc1)Nc1ccc(OCCCN2CCOCC2)cc1 | 140 nM | – | –
22 | O=C(Nc1ccc(C(F)(F)F)cc1)Nc1cccc(OCCCN2CCOCC2)c1 | 1 nM | 5 ng/mL | 8 ng·h/mL

Row | Compound | IC50 [1] | Cmax [2] | AUC(0-t) at 24 h [3]
23 | CC(C)(C)NC(=O)Nc1cccc(OCCCN2CCOCC2)c1 | 1040 nM | – | –
24 | O=C(Nc1ccc(F)cc1)Nc1ccc(F)c(OCCCN2CCOCC2)c1 | 40 nM | – | –
25 | O=C(Nc1cccc(OCCCN2CCOCC2)c1)Nc1c(Cl)cccc1Cl | 10000 nM | – | –
26 | O=C(Cc1ccc(OC(F)(F)F)cc1)Nc1ccc(OCCCN2CCOCC2)cc1 | 42 nM | – | –
27 | O=C(Nc1cccnc1)Nc1cccc(OCCCN2CCOCC2)c1 | 5000 nM | – | –
28 | O=C(Nc1ccc(Cl)cc1)Nc1cccc(OCCCN2CCOCC2)c1 | 2 nM | 6 ng/mL | 9 ng·h/mL
29 | O=C(Nc1cccc(OCCCN2CCOCC2)c1)Nc1ccc(F)c(F)c1 | 11 nM | 3 ng/mL | 3 ng·h/mL
30 | O=C(Nc1cccc(OCCCN2CCOCC2)c1)NC1CCCCC1 | – | 102 ng/mL | 131 ng·h/mL
31 | O=C(Nc1ccc(F)c(OCCCN2CCOCC2)c1)NC1CCCCC1 | 6.5 nM | – | –
32 | O=C(Nc1ccccc1)Nc1ccc(OCCCN2CCOCC2)cc1 | 39 nM | – | –
33 | O=C(Cc1ccc2c(c1)OCO2)Nc1cccc(OCCCN2CCOCC2)c1 | 365 nM | – | –
34 | O=C(Nc1ccc(OCCCN2CCOCC2)cc1)NC1CCCCC1 | 5.4 nM | 669 ng/mL | 863 ng·h/mL
35 | O=C(NC1CCCC(OCCCN2CCOCC2)C1)NC12CC3CC(CC(C3)C1)C2 (stereo not drawn) | 2.5 nM | – | –
36 | O=C(Nc1ccccc1)Nc1ccc(F)c(OCCCN2CCOCC2)c1 | 81 nM | – | –
37 | O=C(Nc1ccc(C(F)(F)F)cc1)Nc1ccc(F)c(OCCCN2CCOCC2)c1 | 1.3 nM | – | –
38 | CC(C)(C)CC(=O)Nc1cccc(OCCCN2CCOCC2)c1 | 1550 nM | – | –
39 | O=C(Cc1cccnc1)Nc1cccc(OCCCN2CCOCC2)c1 | 14000 nM | – | –
40 | O=C(Nc1ccc(F)c(OCCCN2CCOCC2)c1)NC12CC3CC(CC(C3)C1)C2 | 0.8 nM | – | –
41 | O=C(Cc1ccc(F)c(F)c1)Nc1cccc(OCCCN2CCOCC2)c1 | 321 nM | – | –
42 | O=C(CC12CC3CC(CC(C3)C1)C2)Nc1ccc(OCCCN2CCOCC2)cc1 | 1.3 nM | – | –
43 | O=C(Nc1ccc(OCCCN2CCOCC2)cc1)Nc1ccc(C(F)(F)F)cc1 | 0.8 nM | 263 ng/mL | 1050 ng·h/mL
44 | O=C(Cc1ccc(C(F)(F)F)cc1)Nc1ccc(F)c(OCCCN2CCOCC2)c1 | 156 nM | – | –
